Results taken from US20110313672A1, “CELLULAR ANTIOXIDANT ACTIVITY (CAA) ASSAY” (CORNELL UNIVERSITY, priority 2007, published 2011).
Like-named read-outs stand apart in the source and are kept apart here.

Key:
[1] = tested on: HepG2 cells; test: Cellular antioxidant activity (CAA) assay: inhibition of peroxyl radical-induced DCFH oxidation; assay type: cell-based, human; conditions: for EC50: Homo sapiens; for cellular antioxidant activity, result in words: no PBS wash protocol
Procedure: Cells (e.g., human hepatocellular carcinoma cells; HepG2) are seeded at a density of e.g., 6×10^4/well on a 96-well microplate in 100 μL growth medium/well. It is preferred that only the inside wells of e.g., a 96-well microplate are used for the assay, since the outer wells have increased variation compared to that of the inner wells. Twenty-four hours after seeding the growth medium is removed and the wells are washed with PBS. Triplicate wells are treated for 1 h with 100 μL of a test compound (e.g., pure phytochemical compounds or fruit extracts) plus 25 μM DCFH-DA dissolved in treatment medium.
600 μM ABAP is then applied to the cells in 100 μL HBSS and the 96-well microplate is placed into a plate reader e.g., Fluoroskan Ascent FL plate-reader (ThermoLabsystems, Franklin, Mass.) at 37° C. Emission at 538 nm is measured with excitation at 485 nm, for example every 5 min for 1 h. Each plate should include triplicate control and blank wells: control wells contain cells treated with DCFH-DA and oxidant; blank wells contain cells treated with dye and HBSS without oxidant.
A test compound is assayed in multiple wells of e.g., a 96-well cell culture plate. Some wells are washed with 100 μL of phosphate-buffered saline (PBS) prior to the addition of ABAP, while other wells were not washed prior to the addition of ABAP. It was noted that the measured antioxidant activity of some fruit extracts (e.g., blueberries) was different when a PBS wash was used compared to when there was no PBS wash (see Table 2; FIGS. 3 and 4). This is likely due to non-specific binding of certain antioxidant compounds to the outer membrane, or a reduced uptake of the compound, thus the ratio of antioxidant activity values obtained with a PBS wash compared to a non-PBS wash indicates the bioavailability of the test compound. In order to accurately measure the intracellular antioxidant activity of a test compound, a PBS wash prior to the addition of a peroxyl initiator (e.g, ABAP) is necessary. The values obtained for cells assayed using a PBS wash should be compared to values obtained for the same cells assayed without a PBS wash. One of skill in the art can plan and perform experiments on a test compound in the presence and absence of a PBS wash, in order to accurately assess the intracellular antioxidant capacity of the test compound.
After blank subtraction from the fluorescence readings, the area under the curve of fluorescence versus time is integrated to calculate the cellular antioxidant activity (CAA) value at each concentration of pure phytochemical compound or fruit extract as follows:
where ∫SA is the integrated area under the sample fluorescence versus time curve and ∫CA is the integrated area from the control curve. The median effective dose (EC50) was determined for the pure phytochemical compounds and fruit extracts from the median effect plot of log (fa/fu) vs. log (dose), where fa is the fraction affected and fu is the fraction unaffected by the treatment. To quantify intra-experimental variation, the EC50 values are stated as mean±SD for triplicate sets of data obtained from the same experiment. Inter-experimental variation is obtained for some representative pure phytochemical compounds and fruit extracts by averaging the fluorescence values from triplicate wells in each trial to obtain one EC50 value per experiment and calculating the mean±SD for at least four trials. In each experiment, a standard is used, for example quecetin, thus permitting the cellular antioxidant activities for a test compounds to be expressed as μmol quercetin equivalents (QE)/100 μmol compound. Fruit extracts are expressed as μmol QE/100 g fruit. In order to compare the antioxidant quality of different fruits, cellular antioxidant activity (CAA) is also calculated as μmol QE/100 μmol total phenolics.
Human hepatocellular carcinoma HepG2 cells were seeded at a density of 6×10^4/well on a 96-well microplate in 100 μL growth medium/well. […]

[2] = in vitro; conditions: human
Procedure: (§1) Briefly, HepG2 cells are seeded at 4×10^4/well on a 96-well plate in 100 μL growth medium and incubated for 24 h at 37° C. The medium is removed and the cells are washed with PBS. Treatments of fruit extracts or antioxidant compounds in 100 μL treatment medium (Williams' Medium E supplemented with 2 mM L-glutamine and 10 mM Hepes) are applied to the cells and the plates are incubated at 37° C. for 24 h. The treatment medium is removed and the cells are washed with PBS. A volume of 50 μL/well methylene blue staining solution (98% HBSS, 0.67% glutaraldehyde, 0.6% methylene blue) is applied to each well and the plate is incubated at 37° C. for 1 h.
(§2) Excess dye is removed by immersing the plate in fresh deionized water until the water appears clear. The excess water should be tapped out of the wells and the plate allowed to air-dry briefly before addition of 100 μL elution solution (49% PBS, 50% ethanol, 1% acetic acid) to each well. The microplate is then placed on a bench-top shaker for 20 minutes to allow uniform elution. The absorbance is read at 570 nm with blank subtraction using, for example a MRX II DYNEX spectrophotometer (DYNEX Inc., Chantilly, Va.). Concentrations of pure compounds or fruit extracts that decrease the absorbance by more than 10% when compared to the control are considered to be cytotoxic.
(§3) Cytotoxicity was measured using the method of Oliver et al. (31) with modifications by our laboratory (32). […] The medium was removed and the cells were washed with PBS. Treatments of fruit extracts or antioxidant compounds in 100 μL treatment medium (Williams' Medium E supplemented with 2 mM L-glutamine and 10 mM Hepes) were applied to the cells and the plates were incubated at 37° C. for 24 h. The treatment medium was removed and the cells were washed with PBS. A volume of 50 μL/well methylene blue staining solution (98% HBSS, 0.67% glutaraldehyde, 0.6% methylene blue) was applied to each well and the plate was incubated at 37° C. for 1 h. The dye was removed and the plate was immersed in fresh deionized water three times, or until the water was clear. The water was tapped out of the wells and the plate was allowed to air-dry briefly before 100 μL elution solution (49% PBS, 50% ethanol, 1% acetic acid) was added to each well. The microplate was placed on a bench-top shaker for 20 minutes to allow uniform elution. The absorbance was read at 570 nm with blank subtraction using the MRX II DYNEX spectrophotometer (DYNEX Inc., Chantilly, Va.). Concentrations of pure compounds or fruit extracts that decreased the absorbance by more than 10% when compared to the control were considered to be cytotoxic.
(§4) The median cytotoxic concentration (CC50) was calculated for each fruit.
(§5) Briefly, HepG2 cells were seeded at 4×10^4/well on a 96-well plate in 100 μL growth medium and incubated for 24 h at 37° C. The medium was removed, and the cells were washed with PBS. Flavonoids in 100 μL growth medium were applied to the cells, and the plates were incubated at 37° C. for 24 h. The medium was removed, and the cells were washed with PBS before a volume of 50 μL/well methylene blue staining solution (98% HBSS, 0.67% glutaraldehyde, 0.6% methylene blue) was applied to each well, and the plate was incubated at 37° C. for 1 h. The dye was removed, and the plate was immersed in fresh deionized water until the water was clear. The water was tapped out of the wells, and the plate was allowed to air-dry briefly before 100 μL of elution solution (49% PBS, 50% ethanol, 1% acetic acid) was added to each well. The microplate was placed on a benchtop shaker for 20 min to allow uniform
(§6) elution. The absorbance was read at 570 nm with blank subtraction using the MRX II Dynex spectrophotometer (Dynex Inc., Chantilly, Va.). The median cytotoxic concentration (CC50) was calculated for each flavonoid.

[3] = tested on: HepG2 cells; test: in vitro
Procedure: as §1, §2, §3, §4, §5, §6

[4] = HepG2, Example 1, Table 1, PBS wash, pure phytochemical compounds, mean ± SD, n=3, read-out: EC50 for inhibition of peroxyl radical-induced DCFH oxidation
[5] = HepG2, Example 1, Table 1, no PBS wash, pure phytochemical compounds, mean ± SD, n=3, read-out: EC50 for inhibition of peroxyl radical-induced DCFH oxidation

SMILES | CAA ([1]; Example 3, Table 7, no PBS wash) | EC50 [1, 4] | EC50 [1, 5] | EC50 ([1]; HepG2, Example 3, Table 7, PBS wash, flavonoids, mean ± SD, n=3, read-out: EC50) | EC50 ([1]; HepG2, Example 3, Table 7, no PBS wash, flavonoids, mean ± SD, n=3, read-out: EC50) | EC50 ([1]; HepG2, Example 3, text, no PBS wash, read-out: EC50) | CC50 at 24 h [2] | Cytotoxicity (cytotoxic concentration) ([3]; human, 24 h) | cellular antioxidant activity, result in words [1] | Cytotoxicity (cytotoxic concentration) ([3]; Example 1, dose at which the cell number is reduced by more than 10% after 24 h treatment)
Oc1cc(O)c2c(c1)O[C@H](c1ccc(O)c(O)c1)[C@H](O)C2 [Epicatechin, (−)-epicatechin] | 1.9 ± 0.2 μmol of QE/100 μmol | > 600 µM | > 200 µM | > 800 µM | 457 ± 47 µM | 457 ± 47 µM | > 1000 µM | >500 µM |  | 
O=C(CCc1ccc(O)cc1)c1c(O)cc(O)cc1O [Phloretin, phloretin] |  | > 25 µM | > 25 µM |  |  |  |  | 25 µM | activity only at doses much higher than their cytotoxic concentrations | 
Oc1ccc(C=Cc2cc(O)cc(O)c2)cc1 [Resveratrol, resveratrol] |  | > 40 µM | > 40 µM |  |  |  |  |  | activity only at doses much higher than their cytotoxic concentrations | 40 µM
